This assay relates to BDF1 mice, B16 melanoma ip, median survival T/C. The assay can be described thus: NCI In Vivo Anticancer Drug Screen. Data for tumor model B16 Melanoma (intraperitoneal) in B6D2F1 (BDF1) mice. Conditions: endpoint: median survival time, higher = longer survival. Summed up:
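Survival or tumor size is measured after treatment of tumor-bearing mice and normalised to the vehicle-treated control group.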

[1] abbreviates: dose: 6.25 mg/kg/injection, schedule: Q01DX009 (ip), vehicle: saline.
Where [2] appears, read: dose: 12.5 mg/kg/injection, schedule: Q01DX009 (ip), vehicle: saline.
Setting [3] is: dose: 5.0 mg/kg/injection, schedule: Q01DX009 (ip), vehicle: saline with Tween-80.

Values joined by “and” are separate entries in the source; they are usually repeats but may differ in a detail not shown here. Identical values can stand only once. Toxic doses and inconclusive results are not listed.

For the compound `C=C1C(O)C2(O)OCC34C(CC5C(C)=CC(=O)C(O)C5(C)C23)OC(=O)C(OC(=O)C(C)(O)CC)C14` (stereo unspecified), the T/C reads like this: (dose: 0.06 mg/kg/injection, schedule: Q01DX009 (ip), vehicle: saline + alcohol) 109 % of control; (dose: 1.0 mg/kg/injection, schedule: Q01DX009 (ip), vehicle: saline + alcohol) 163 % of control.
Consider `COC(=O)C(CCCN=C(N)N)NC(=O)OCc1ccccc1` (stereo unspecified), for which the T/C is 100 % of control (dose: 100.0 mg/kg/injection, schedule: Q04DX003 (ip), vehicle: saline) and 95 % of control (dose: 200.0 mg/kg/injection, schedule: Q04DX003 (ip), vehicle: saline).
`O=P(N1CCOCC1)(N1CC1)N1CC1`: the T/C by setting is: under setting [1], 115 % of control; under setting [2], 118 % of control.
Regarding `C=C1CCN(c2ccc(Br)cc2)C1=O`, the T/C was 95 % of control (dose: 4.0 mg/kg/injection, schedule: Q01DX009 (ip), vehicle: saline + alcohol); 101 % of control (dose: 8.0 mg/kg/injection, schedule: Q01DX009 (ip), vehicle: saline + alcohol); 109 % of control (dose: 16.0 mg/kg/injection, schedule: Q01DX009 (ip), vehicle: saline + alcohol); 95 % of control (dose: 32.0 mg/kg/injection, schedule: Q01DX009 (ip), vehicle: saline + alcohol); 101 % of control (dose: 64.0 mg/kg/injection, schedule: Q01DX009 (ip), vehicle: saline + alcohol).
`C[N+](C)([O-])CCC=C1c2ccccc2CCc2ccccc21`: the T/C reads like this: under setting [1], 95 % of control; under setting [2], 90 % of control; (dose: 50.0 mg/kg/injection, schedule: Q01DX009 (ip), vehicle: saline) 90 % of control.
Regarding `COc1ccc2c(Nc3ccc(NS(C)(=O)=O)cc3)c3ccccc3nc2c1`, the T/C (dose: 1.87 mg/kg/injection, schedule: Q01DX009 (ip), vehicle: saline with Tween-80) was 163 % of control; the T/C (dose: 2.5 mg/kg/injection, schedule: Q01DX009 (ip), vehicle: saline with Tween-80) was 150 % of control; the T/C (dose: 3.75 mg/kg/injection, schedule: Q01DX009 (ip), vehicle: saline with Tween-80) is 163 % of control; the T/C under setting [3] was 161 % of control; the T/C (dose: 5.3 mg/kg/injection, schedule: Q01DX009 (ip), vehicle: saline with Tween-80) was 188 % of control; the T/C (dose: 7.5 mg/kg/injection, schedule: Q01DX009 (ip), vehicle: saline with Tween-80) was 193 % of control. Moreover, the T/C (dose: 8.0 mg/kg/injection, schedule: Q01DX009 (ip), vehicle: saline with Tween-80) was 188 % of control; the T/C (dose: 12.0 mg/kg/injection, schedule: Q01DX009 (ip), vehicle: saline with Tween-80) was 188 % of control; the T/C under setting [2] is 172 % of control; the T/C (dose: 50.0 mg/kg/injection, schedule: Q01DX001 (ip), vehicle: saline sonified) was 175 % of control; the T/C (dose: 100.0 mg/kg/injection, schedule: Q01DX001 (ip), vehicle: saline sonified) was 194 % of control.
`O=c1[nH]cc(F)c(=O)[nH]1`: the T/C is 107 % of control (dose: 0.5 mg/kg/injection, schedule: Q01DX009 (ip), vehicle: saline); 110 % of control (dose: 1.25 mg/kg/injection, schedule: Q03HX024 (ip), vehicle: saline); 118 % of control (dose: 2.0 mg/kg/injection, schedule: Q01DX009 (ip), vehicle: saline); 104 % of control (dose: 2.5 mg/kg/injection, schedule: Q01DX017 (ip), vehicle: saline); 112 % of control (dose: 2.5 mg/kg/injection, schedule: Q03HX024 (ip), vehicle: saline); 102 % of control (dose: 3.12 mg/kg/injection, schedule: Q01DX009 (ip), vehicle: saline). In addition, the T/C is, setting by setting: (dose: 3.8 mg/kg/injection, schedule: Q04DX003 (ip), vehicle: saline) 116 % of control; (dose: 5.0 mg/kg/injection, schedule: Q01DX001 (ip), vehicle: saline) 105 % of control; under setting [3], 104 % of control; (dose: 5.0 mg/kg/injection, schedule: Q01DX017 (ip), vehicle: saline) 107 % of control; (dose: 5.0 mg/kg/injection, schedule: Q05DX010 (ip), vehicle: saline) 115 % of control; under setting [1], 91 % of control. Also, the T/C (dose: 7.0 mg/kg/injection, schedule: Q01DX009 (ip), vehicle: saline) is 117 % of control; the T/C (dose: 7.5 mg/kg/injection, schedule: Q01DX009 (ip), vehicle: saline) is 117 % of control; the T/C (dose: 7.5 mg/kg/injection, schedule: Q04DX003 (ip), vehicle: saline) was 116 % of control; the T/C (dose: 7.8 mg/kg/injection, schedule: Q04DX003 (ip), vehicle: saline) is 104 % of control; the T/C (dose: 10.0 mg/kg/injection, schedule: Q01DX001 (ip), vehicle: saline) is 107 % of control; the T/C (dose: 10.0 mg/kg/injection, schedule: Q01DX009 (ip), vehicle: saline with Tween-80) was 104 % of control and 111 % of control and 114 % of control. Besides, the T/C is 120 % of control (dose: 10.0 mg/kg/injection, schedule: Q05DX010 (ip), vehicle: saline); 115 % of control (dose: 12.0 mg/kg/injection, schedule: Q01DX009 (ip), vehicle: saline); 123 % of control under setting [2]; 107 % of control (dose: 12.5 mg/kg/injection, schedule: Q04DX005 (ip), vehicle: saline); 108 % of control (dose: 13.0 mg/kg/injection, schedule: Q04DX003 (ip), vehicle: saline); 121 % of control and 122 % of control (dose: 15.0 mg/kg/injection, schedule: Q01DX009 (ip), vehicle: saline). In addition, the T/C (dose: 15.0 mg/kg/injection, schedule: Q04DX003 (ip), vehicle: saline) is 122 % of control; the T/C (dose: 20.0 mg/kg/injection, schedule: Q01DX001 (ip), vehicle: saline) was 115 % of control; the T/C (dose: 20.0 mg/kg/injection, schedule: Q01DX009 (ip), vehicle: saline with Tween-80) is 116 % of control and 119 % of control; the T/C (dose: 20.0 mg/kg/injection, schedule: Q01DX017 (ip), vehicle: saline) was 161 % of control and 169 % of control; the T/C (dose: 21.6 mg/kg/injection, schedule: Q04DX003 (ip), vehicle: saline) is 103 % of control; the T/C (dose: 25.0 mg/kg/injection, schedule: Q01DX009 (ip), vehicle: saline) is 119 % of control. The T/C (dose: 25.0 mg/kg/injection, schedule: Q04DX003 (ip), vehicle: saline) was 122 % of control; the T/C (dose: 25.0 mg/kg/injection, schedule: Q04DX005 (ip), vehicle: saline) is 117 % of control; the T/C (dose: 30.0 mg/kg/injection, schedule: Q01DX009 (ip), vehicle: saline) is 124 % of control; the T/C (dose: 30.0 mg/kg/injection, schedule: Q04DX003 (ip), vehicle: saline) was 117 % of control and 122 % of control; the T/C (dose: 36.0 mg/kg/injection, schedule: Q04DX003 (ip), vehicle: saline) was 104 % of control; the T/C (dose: 40.0 mg/kg/injection, schedule: Q01DX001 (ip), vehicle: saline) was 120 % of control. Besides, the T/C (dose: 40.0 mg/kg/injection, schedule: Q01DX009 (ip), vehicle: saline with Tween-80) is 88 % of control and 97 % of control; the T/C (dose: 50.0 mg/kg/injection, schedule: Q01DX001 (ip), vehicle: saline) is 110 % of control; the T/C (dose: 50.0 mg/kg/injection, schedule: Q04DX003 (ip), vehicle: saline) is 120 % of control; the T/C (dose: 50.0 mg/kg/injection, schedule: Q04DX005 (ip), vehicle: saline) was 115 % of control; the T/C (dose: 60.0 mg/kg/injection, schedule: Q01DX009 (ip), vehicle: saline) was 39 % of control; the T/C (dose: 60.0 mg/kg/injection, schedule: Q04DX003 (ip), vehicle: saline) is 52 % of control and 119 % of control. The T/C is, setting by setting: (dose: 90.0 mg/kg/injection, schedule: Q04DX003 (ip), vehicle: saline) 123 % of control; (dose: 100.0 mg/kg/injection, schedule: Q01DX001 (ip), vehicle: saline) 110 % of control; (dose: 120.0 mg/kg/injection, schedule: Q04DX003 (ip), vehicle: saline) 93 % of control; (dose: 200.0 mg/kg/injection, schedule: Q01DX001 (ip), vehicle: saline) 110 % of control; (dose: 240.0 mg/kg/injection, schedule: Q04DX003 (ip), vehicle: saline) 73 % of control; (dose: 480.0 mg/kg/injection, schedule: Q04DX003 (ip), vehicle: saline) 47 % of control.
For the compound `Cc1cc2nc(Cc3ccccc3)[nH]c2cc1C`, the T/C was 102 % of control (dose: 12.5 mg/kg/injection, schedule: Q01DX009 (ip), vehicle: saline with Tween-80); 105 % of control (dose: 25.0 mg/kg/injection, schedule: Q01DX009 (ip), vehicle: saline with Tween-80); 94 % of control (dose: 50.0 mg/kg/injection, schedule: Q01DX009 (ip), vehicle: saline with Tween-80).

Source of the values: PubChem BioAssay AID192 (DTP/NCI, 2004).
